For eight compounds, Ki and melting point results are on record in patent publication US20020025974A1, “BICYCLE THIOPHENES AND THIAZOLES” (priority 1998, published 2002).

Data set [1] has as its target T1, Alpha-2D adrenergic receptor (Rattus norvegicus, UniProt P22909).
T1 construct: aliquots of the synaptic membrane fraction, the ligand ^3H-para-aminoclonidine and test drug; from tissue; host or cells: rat brain cortex synaptic membrane fraction (male Wistar rats)
T1 sequence (P22909 1-465): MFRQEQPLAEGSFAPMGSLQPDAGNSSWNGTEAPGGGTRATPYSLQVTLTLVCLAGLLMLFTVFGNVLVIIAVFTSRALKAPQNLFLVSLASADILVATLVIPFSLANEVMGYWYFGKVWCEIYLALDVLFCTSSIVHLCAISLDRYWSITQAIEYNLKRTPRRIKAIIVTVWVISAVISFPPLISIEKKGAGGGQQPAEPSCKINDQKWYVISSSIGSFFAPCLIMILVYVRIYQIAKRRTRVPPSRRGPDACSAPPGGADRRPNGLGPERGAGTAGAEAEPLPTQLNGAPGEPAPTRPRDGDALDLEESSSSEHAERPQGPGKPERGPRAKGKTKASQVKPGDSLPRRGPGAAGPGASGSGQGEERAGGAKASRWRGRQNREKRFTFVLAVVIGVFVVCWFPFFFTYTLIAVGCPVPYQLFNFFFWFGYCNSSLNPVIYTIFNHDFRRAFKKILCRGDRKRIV
Kind of data set: Alpha-2D adrenergic receptor binding assay (3H-para-aminoclonidine, rat cortex synaptic membranes). The conditions noted are these: ligand 3H-para-aminoclonidine, 25° C. 20 min. On the procedure:
Alpha-2D adrenergic receptor binding assay
Male, Wistar rats (150-250 g, VAF, Charles River, Kingston, N.Y.) are sacrificed by cervical dislocation and their brains removed and placed immediately in ice cold HEPES buffered sucrose. The cortex is dissected out and homogenized in 20 volumes of HEPES sucrose in a Teflon™-glass homogenizer. The homogenate is centrifuged at 1000 g for 10 min, and the resulting supernatant centrifuged at 42,000 g for 10 min. The resulting pellet is resuspended in 30 volumes of 3 mM potassium phosphate buffer, pH 7.5, preincubated at 25° C. for 30 min and recentrifuged. The resulting pellet is resuspended as described above and used for the receptor binding assay. […] The incubation is terminated by filtration of the tube contents through glass fiber filter sheets. Following washing of the sheets with 10 mM HEPES buffer, the adhering radioactivity is quantified by liquid scintillation spectrometry.
Binding of the test drug to the receptor is determined by comparing the amount of radiolabeled ligand bound in control tubes without drug to the amount of radiolabeled ligand bound in the presence of the drug. Dose-response data are analyzed with LIGAND, a nonlinear curve fitting program designed specifically for the analysis of ligand binding data.

Where a name gives a salt, the structure may show the parent alone. Read-outs that look alike come from different tables or passages of the source.

What is called Ki is a measure of affinity in units of concentration, obtained from inhibition or displacement. In the case of `Brc1c(Cc2c[nH]cn2)sc2ccccc12` [Cp-4], the Ki in data set [1] (α2D Ki) was found to be 0.22 nM.

`c1nc(Cc2nc3c(s2)CCCC3)c[nH]1` [Cp-11]: the Ki in data set [1] (read-out: α2D Ki) was found to be 110 nM.

For orientation: melting point means the temperature of the solid-liquid transition. Regarding `c1nc(Cc2nc3c(s2)CCCC3)c[nH]1` (as salt: fumaric acid salt) [Cp-11], the melting point was in the range of 169 to 171 °C.

`c1ccc2sc(Cc3c[nH]cn3)cc2c1` [Cp-1] displayed a Ki in data set [1] (α2D Ki) of 1.1 nM.

For `c1ccc2c(Cc3c[nH]cn3)csc2c1` [Cp-6], in data set [1] (α2D Ki), the Ki came out at 0.09 nM.

As to `CC(c1c[nH]cn1)c1cc2ccccc2s1` (centres unmarked) [Cp-3], in data set [1] (α2D Ki), the Ki came out at 14 nM.

In the case of `OC(c1c[nH]cn1)c1cc2ccccc2s1` (centres unmarked) [Cp-2], affinity in data set [1] (α2D Ki) was put at a Ki of 74.9 nM.

Turning to `c1ccc2sc(-c3c[nH]cn3)cc2c1` [Cp-9], the Ki in data set [1] (read-out: α2D Ki) turned out to be 18 nM.
